Converted amounts (≈) assume the structure as drawn. Where two headings read alike, the source gives them in different places.
Legend:
[1] = tested on: S. enterica Typhimurium 14028 ΔtolC1::kan; experiment: Minimal inhibitory concentration; assay type: cell-based, Salmonella enterica serovar Typhimurium; details: for MIC: Salmonella enterica, TYPHIMURIUM, read-out: S. enterica Typhimurium 14028 ΔtolC1::kan MIC
[2] = target: S. aureus DNA gyrase (Staphylococcus aureus, UniProt P20831); experiment: DNA cleavage assay
Sequence of S. aureus DNA gyrase (P20831 whole entry): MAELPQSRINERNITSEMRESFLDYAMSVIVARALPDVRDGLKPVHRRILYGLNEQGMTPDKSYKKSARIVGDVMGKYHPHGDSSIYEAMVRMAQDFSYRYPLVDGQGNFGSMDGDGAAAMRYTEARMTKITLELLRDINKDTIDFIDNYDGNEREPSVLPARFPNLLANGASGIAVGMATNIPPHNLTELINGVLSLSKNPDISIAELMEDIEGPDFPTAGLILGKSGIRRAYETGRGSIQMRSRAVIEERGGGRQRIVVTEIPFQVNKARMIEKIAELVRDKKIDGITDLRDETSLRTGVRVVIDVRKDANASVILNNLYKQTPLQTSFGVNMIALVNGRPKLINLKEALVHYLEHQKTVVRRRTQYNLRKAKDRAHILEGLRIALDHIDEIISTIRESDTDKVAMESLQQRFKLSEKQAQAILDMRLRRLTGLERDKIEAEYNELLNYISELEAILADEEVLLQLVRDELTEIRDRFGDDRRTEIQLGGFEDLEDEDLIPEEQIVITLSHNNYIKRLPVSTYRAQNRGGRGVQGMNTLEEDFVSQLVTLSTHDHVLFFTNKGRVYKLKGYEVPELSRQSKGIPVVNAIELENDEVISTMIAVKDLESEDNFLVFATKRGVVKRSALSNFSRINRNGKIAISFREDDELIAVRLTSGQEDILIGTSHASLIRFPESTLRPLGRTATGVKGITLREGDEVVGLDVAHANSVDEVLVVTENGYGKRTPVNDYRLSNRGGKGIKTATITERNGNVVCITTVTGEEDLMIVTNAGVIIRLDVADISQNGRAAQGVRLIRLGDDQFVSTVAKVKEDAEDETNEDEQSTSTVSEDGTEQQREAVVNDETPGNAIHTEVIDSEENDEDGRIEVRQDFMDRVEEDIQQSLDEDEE
Sequence of S. aureus DNA gyrase (P0A0K8 whole entry partner): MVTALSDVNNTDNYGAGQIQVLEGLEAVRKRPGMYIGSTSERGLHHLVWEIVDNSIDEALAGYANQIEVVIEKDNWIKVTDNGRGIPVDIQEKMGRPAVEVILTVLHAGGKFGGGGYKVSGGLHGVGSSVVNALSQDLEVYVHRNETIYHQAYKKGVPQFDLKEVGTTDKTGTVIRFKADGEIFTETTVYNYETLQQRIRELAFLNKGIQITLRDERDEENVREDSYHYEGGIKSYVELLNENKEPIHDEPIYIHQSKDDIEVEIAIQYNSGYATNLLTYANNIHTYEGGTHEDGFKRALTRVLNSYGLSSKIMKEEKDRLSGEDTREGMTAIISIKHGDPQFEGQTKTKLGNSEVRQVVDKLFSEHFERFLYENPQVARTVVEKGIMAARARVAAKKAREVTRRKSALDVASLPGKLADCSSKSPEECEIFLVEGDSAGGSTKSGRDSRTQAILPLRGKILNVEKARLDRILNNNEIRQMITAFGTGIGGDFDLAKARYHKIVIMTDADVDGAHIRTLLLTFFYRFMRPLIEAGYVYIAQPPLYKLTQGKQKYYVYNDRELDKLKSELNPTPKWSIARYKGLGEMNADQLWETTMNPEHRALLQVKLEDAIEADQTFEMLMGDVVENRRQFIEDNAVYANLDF

[3] = MIC wildtype 14028 vs efflux-deficient ΔtolC1::kan

## COc1ccc2ncc(F)c(CCN3CCC(/C=C/c4ccc(C)cc4)CC3)c2n1 [13a]
[1]
  MIC: 0.5 to 1 µg/mL (≈ 1.23 to 2.47 µM)

## COc1ccc2ncc(F)c(CCN3CCC(NCc4ccc(C)cc4)CC3)c2n1 [compound 40]
[2]
  levels of SSBs: lower levels of SSBs

## COc1ccc2ncc(F)c(CCN3CCC([C@@H](O)[C@H](O)c4ccc(C)cc4)CC3)c2n1 [16a]
[1]
  MIC: 0.5 to 1 µg/mL (≈ 1.14 to 2.28 µM)

## COc1ccc2ncc(F)c(CCN3CCC(/C=C\c4ccc5c(c4)OCCO5)CC3)c2n1 [21b]
[1]; [3]
  Fold Change: ≥16

## COc1ccc2ncc(F)c(CCN3CCC(/C=C\c4ccc(C)cc4)CC3)c2n1 [21a]
[1]
  Fold Change: ≥8

## COc1ccc2ncc(F)c(CCN3CCC([C@@H](O)[C@H](O)c4ccc5c(c4)OCCO5)CC3)c2n1 [16b]
[1]
  MIC: 0.5 µg/mL (≈ 1.03 µM)

## COc1ccc2ncc(F)c(CCN3CCC(C(N)Cc4ccc(C)cc4)CC3)c2n1 (stereo not drawn) [9a]
[2]
  levels of SSBs: lower levels of SSBs

## O=c1ccc2ncc(=O)n3c2n1C[C@H]3CN1CCC(NCc2cc3c(cn2)OCCC3)CC1 [Gep., gepotidacin, reference compound]
[1]; [3]
  Fold Change: 4–16
[1]
  MIC: 0.125 to 0.5 µg/mL (≈ 0.279 to 1.11 µM)
